These results are taken from PubChem BioAssay AID248 (DTP/NCI, 2004).

The structures appear in SMILES notation. Several values for one entry are separate records, joined by “and”; a condition that tells them apart may be missing. Equal values may be shown once. Inconclusive results and toxic doses are left out.

This test relates to L1210 leukemia ip in BDF1 mice, survival T/C. Kind of test: NCI In Vivo Anticancer Drug Screen. Data for tumor model L1210 Leukemia (intraperitoneal) in B6D2F1 (BDF1) mice. Particulars: endpoint: mean survival time, higher = longer survival. The method, then: The antitumor activity of compounds was measured in mice bearing transplantable tumors. Survival or tumor size were measured and the results are expressed as the measurement made in the treated group (T) divided by the measurement made in the vehicle treated control group (C). The tumor model used in this assay is L1210 Leukemia (intraperitoneal) in B6D2F1 (BDF1) mice

Setting [1] is: dose: 50.0 mg/kg/injection, schedule: Q04DX003 (ip), vehicle: saline.
The mark [2] stands for this setting: dose: 100.0 mg/kg/injection, schedule: Q04DX003 (ip), vehicle: saline.
[3] abbreviates: dose: 200.0 mg/kg/injection, schedule: Q04DX003 (ip), vehicle: saline.
Where [4] appears, read: dose: 100.0 mg/kg/injection, schedule: Q04DX003 (ip), vehicle: saline with Tween-80.
[5] abbreviates: dose: 200.0 mg/kg/injection, schedule: Q04DX003 (ip), vehicle: saline with Tween-80.
The mark [6] stands for this setting: dose: 400.0 mg/kg/injection, schedule: Q04DX003 (ip), vehicle: saline with Tween-80.
The mark [7] stands for this setting: dose: 200.0 mg/kg/injection, schedule: Q01DX009 (ip), vehicle: saline with Tween-80.
Setting [8] is: dose: 100.0 mg/kg/injection, schedule: Q01DX001 (ip), vehicle: saline.
Setting [9] is: dose: 100.0 mg/kg/injection, schedule: Q01DX009 (ip), vehicle: saline.
Where [10] appears, read: dose: 100.0 mg/kg/injection, schedule: Q04DX002 (ip), vehicle: Klucel (hydroxypropylcellulose) (HPC).
Where [11] appears, read: dose: 200.0 mg/kg/injection, schedule: Q04DX002 (ip), vehicle: Klucel (hydroxypropylcellulose) (HPC).
Where [12] appears, read: dose: 400.0 mg/kg/injection, schedule: Q04DX002 (ip), vehicle: Klucel (hydroxypropylcellulose) (HPC).
Where [13] appears, read: dose: 100.0 mg/kg/injection, schedule: Q04DX003 (ip), vehicle: Klucel (hydroxypropylcellulose) (HPC).
Where [14] appears, read: dose: 200.0 mg/kg/injection, schedule: Q04DX003 (ip), vehicle: Klucel (hydroxypropylcellulose) (HPC).
Where [15] appears, read: dose: 12.5 mg/kg/injection, schedule: Q04DX003 (ip), vehicle: Klucel (hydroxypropylcellulose) (HPC).
The mark [16] stands for this setting: dose: 25.0 mg/kg/injection, schedule: Q04DX003 (ip), vehicle: Klucel (hydroxypropylcellulose) (HPC).

With `COC(=O)/C=C/Nc1ccccc1`, the T/C runs as follows: (dose: 100.0 mg/kg/injection, schedule: Q04DX003 (ip), vehicle: other) 98 % of control; (dose: 200.0 mg/kg/injection, schedule: Q04DX003 (ip), vehicle: other) 98 % of control; (dose: 400.0 mg/kg/injection, schedule: Q04DX003 (ip), vehicle: other) 94 % of control.

As for `CCOC(=O)CCC(NC(=O)c1cc(Cl)c(N(CC)Cc2cnc3nc(N)nc(N)c3n2)c(Cl)c1)C(=O)OCC` (stereo not drawn), where the note is “dose: 25.0 mg/kg/injection, schedule: Q01DX009 (ip), vehicle: Klucel (hydroxypropylcellulose) (HPC)”, the T/C is 179 % of control.

Turning to `CCCCCCCCOC(=O)c1[nH]cnc1/N=N/N(C)C1CCCCC1`, the T/C by setting is: (dose: 100.0 mg/kg/injection, schedule: Q01DX001 (ip), vehicle: other) 93 % of control; (dose: 200.0 mg/kg/injection, schedule: Q01DX001 (ip), vehicle: other) 96 % of control; (dose: 400.0 mg/kg/injection, schedule: Q01DX001 (ip), vehicle: other) 91 % of control.

`CC(N)CC(C)(C)N` (stereo not drawn): the T/C reads like this: under setting [1], 90 % of control; under setting [2], 91 % of control; under setting [3], 90 % of control.

On to `COC(=O)C1C2CC(Br)C(Br)CC21` (stereo not drawn), for which the T/C reads like this: under setting [4], 94 % of control; under setting [5], 94 % of control; under setting [6], 94 % of control.

In the case of `COc1ccc(OC)c(C2(O)C=C(C)C(=O)C=C2C)c1` (stereo not drawn), the T/C is, setting by setting: (dose: 150.0 mg/kg/injection, schedule: Q01DX001 (ip), vehicle: Klucel (hydroxypropylcellulose) (HPC)) 91 % of control; (dose: 300.0 mg/kg/injection, schedule: Q01DX001 (ip), vehicle: Klucel (hydroxypropylcellulose) (HPC)) 91 % of control.

Regarding `COc1cc(/C=C2/SC(=S)NC2=O)cc(OC)c1OC`, the T/C (dose: 100.0 mg/kg/injection, schedule: Q01DX009 (ip), vehicle: saline with Tween-80) is 96 % of control; the T/C under setting [4] was 100 % of control; the T/C under setting [7] is 92 % of control; the T/C under setting [5] is 100 % of control; the T/C (dose: 400.0 mg/kg/injection, schedule: Q01DX009 (ip), vehicle: saline with Tween-80) is 97 % of control; the T/C under setting [6] is 117 % of control.

`CN(C)CCCn1c(=O)c2ccccc2c2ccccc21`: the T/C (dose: 50.0 mg/kg/injection, schedule: Q01DX001 (ip), vehicle: saline) was 101 % of control; the T/C (dose: 50.0 mg/kg/injection, schedule: Q01DX015 (ip), vehicle: saline) is 98 % of control; the T/C under setting [8] was 103 % of control; the T/C (dose: 100.0 mg/kg/injection, schedule: Q01DX015 (ip), vehicle: saline) was 108 % of control.

For `Cc1ccccc1C(C)C`, the T/C runs as follows: under setting [4], 94 % of control; under setting [5], 98 % of control; under setting [6], 91 % of control.

`C[N+](C)(C)C1(Cc2ccccc2)c2ccccc2-c2ccc(Br)cc21` (stereo not drawn): the T/C reads like this: (dose: 25.0 mg/kg/injection, schedule: Q01DX009 (ip), vehicle: saline) 104 % of control; (dose: 25.0 mg/kg/injection, schedule: Q04DX003 (ip), vehicle: saline) 102 % of control; (dose: 50.0 mg/kg/injection, schedule: Q01DX009 (ip), vehicle: saline) 95 % of control; under setting [1], 97 % of control; under setting [9], 94 % of control; under setting [2], 98 % of control and 100 % of control.

For the compound `O=C(NCCCCCSC(=O)c1ccccc1)c1ccccc1`, the T/C was 90 % of control under setting [10], 94 % of control under setting [11] and 90 % of control under setting [12].

As to `O=[N+]([O-])c1ccc(OCc2ccc(COc3ccc(S(=O)(=O)F)cc3)cc2)c(Cl)c1`, the T/C by setting is: (dose: 100.0 mg/kg/injection, schedule: Q01DX001 (ip), vehicle: saline with Tween-80) 90 % of control; (dose: 200.0 mg/kg/injection, schedule: Q01DX001 (ip), vehicle: saline with Tween-80) 102 % of control; (dose: 400.0 mg/kg/injection, schedule: Q01DX001 (ip), vehicle: saline with Tween-80) 96 % of control.

`O=CNC1CCCCC1c1ccc(C2CCCCC2NC=O)cc1` (stereo not drawn): the T/C under setting [8] is 97 % of control.

`N#CC(NC(=O)NCCCl)c1ccccc1` (stereo not drawn): the T/C is, setting by setting: under setting [13], 104 % of control; under setting [14], 101 % of control.

`CC(C)=C1C2C=CC1C(C(=O)N(C)C)C2C(=O)N(C)C` (stereo not drawn): the T/C was 96 % of control under setting [9]; 113 % of control under setting [2]; 98 % of control (dose: 200.0 mg/kg/injection, schedule: Q01DX009 (ip), vehicle: saline); 108 % of control under setting [3]; 104 % of control (dose: 400.0 mg/kg/injection, schedule: Q01DX009 (ip), vehicle: saline); 100 % of control (dose: 400.0 mg/kg/injection, schedule: Q04DX003 (ip), vehicle: saline).

In the case of `O=C(COc1ccc(Cl)cc1Cl)NO`, the T/C (dose: 100.0 mg/kg/injection, schedule: Q01DX009 (ip), vehicle: Klucel (hydroxypropylcellulose) (HPC)) was 104 % of control; the T/C under setting [13] was 102 % of control; the T/C (dose: 200.0 mg/kg/injection, schedule: Q01DX009 (ip), vehicle: Klucel (hydroxypropylcellulose) (HPC)) is 109 % of control; the T/C under setting [14] is 104 % of control; the T/C (dose: 400.0 mg/kg/injection, schedule: Q01DX009 (ip), vehicle: Klucel (hydroxypropylcellulose) (HPC)) is 101 % of control; the T/C (dose: 400.0 mg/kg/injection, schedule: Q04DX003 (ip), vehicle: Klucel (hydroxypropylcellulose) (HPC)) was 106 % of control.

With `CN=C1C=C(NC)C(F)(F)C1(F)F`, the T/C reads like this: (dose: 6.25 mg/kg/injection, schedule: Q01DX009 (ip), vehicle: saline sonified) 96 % of control; (dose: 12.5 mg/kg/injection, schedule: Q01DX009 (ip), vehicle: saline sonified) 100 % of control; under setting [15], 98 % of control; (dose: 25.0 mg/kg/injection, schedule: Q01DX009 (ip), vehicle: saline sonified) 91 % of control; under setting [16], 98 % of control; (dose: 50.0 mg/kg/injection, schedule: Q04DX003 (ip), vehicle: Klucel (hydroxypropylcellulose) (HPC)) 97 % of control.

Turning to `CC(C)[As](C)(=O)O`, the T/C runs as follows: (dose: 6.25 mg/kg/injection, schedule: Q04DX003 (ip), vehicle: Klucel (hydroxypropylcellulose) (HPC)) 101 % of control; under setting [15], 97 % of control; under setting [16], 102 % of control and 103 % of control.

For `Cc1cc(CCl)c(Br)cc1CCl`, the T/C reads like this: under setting [10], 100 % of control; under setting [11], 100 % of control; under setting [12], 107 % of control.

Turning to `O=C(NNCN1C(=O)c2ccccc2C1=O)c1ccccc1`, under setting [7], the T/C was 90 % of control.
